# According to PMC2095803 (Nucleic Acids Research, 2007):
# Substitutions are numbered along the chain they refer to.
# Assays:
# Bst DNA polymerase [1] = biological target: T1, Bst DNA polymerase (Geobacillus stearothermophilus, UniProt P52026); assay: PEP; type: biochemical, Bacillus stearothermophilus
# T1 sequence (P52026 289-876 limits assumed): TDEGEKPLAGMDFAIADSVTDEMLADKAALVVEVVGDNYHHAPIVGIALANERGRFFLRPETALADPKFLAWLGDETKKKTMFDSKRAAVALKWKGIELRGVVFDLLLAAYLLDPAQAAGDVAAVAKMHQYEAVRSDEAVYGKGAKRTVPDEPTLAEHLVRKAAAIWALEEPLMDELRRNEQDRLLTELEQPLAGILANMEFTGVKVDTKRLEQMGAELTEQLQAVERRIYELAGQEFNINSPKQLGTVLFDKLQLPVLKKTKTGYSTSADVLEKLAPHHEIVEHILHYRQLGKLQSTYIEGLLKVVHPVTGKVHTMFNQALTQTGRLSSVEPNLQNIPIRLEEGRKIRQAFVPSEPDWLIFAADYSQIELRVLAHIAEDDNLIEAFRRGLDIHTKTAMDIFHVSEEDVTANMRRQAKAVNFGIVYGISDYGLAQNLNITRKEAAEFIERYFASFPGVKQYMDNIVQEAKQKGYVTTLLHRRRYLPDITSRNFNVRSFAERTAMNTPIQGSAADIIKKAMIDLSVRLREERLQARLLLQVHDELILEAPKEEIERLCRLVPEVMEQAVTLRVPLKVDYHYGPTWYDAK
# [2] = biological target: Klenow(exo−) DNA polymerase (Escherichia coli, UniProt P00582, D355A/E357A); assay: PEP; type: biochemical
# Taq DNA polymerase [3] = biological target: T2, Taq DNA polymerase (Thermus aquaticus, UniProt P19821); assay: PEP; type: biochemical, Thermus aquaticus YT-1
# [4] = biological target: AmpliTaqFS DNA polymerase (Thermus aquaticus, UniProt P19821, F667Y/G46D); assay: PEP; type: biochemical, Thermus aquaticus YT-1
# [5] = biological target: T3, Therminator DNA polymerase (Thermococcus sp., UniProt Q56366, A485L/D141A/E143A); assay: PEP; type: biochemical, Thermococcus species 9ºN-7
# T3 sequence (Q56366 1-775 D141A/E143A/A485L): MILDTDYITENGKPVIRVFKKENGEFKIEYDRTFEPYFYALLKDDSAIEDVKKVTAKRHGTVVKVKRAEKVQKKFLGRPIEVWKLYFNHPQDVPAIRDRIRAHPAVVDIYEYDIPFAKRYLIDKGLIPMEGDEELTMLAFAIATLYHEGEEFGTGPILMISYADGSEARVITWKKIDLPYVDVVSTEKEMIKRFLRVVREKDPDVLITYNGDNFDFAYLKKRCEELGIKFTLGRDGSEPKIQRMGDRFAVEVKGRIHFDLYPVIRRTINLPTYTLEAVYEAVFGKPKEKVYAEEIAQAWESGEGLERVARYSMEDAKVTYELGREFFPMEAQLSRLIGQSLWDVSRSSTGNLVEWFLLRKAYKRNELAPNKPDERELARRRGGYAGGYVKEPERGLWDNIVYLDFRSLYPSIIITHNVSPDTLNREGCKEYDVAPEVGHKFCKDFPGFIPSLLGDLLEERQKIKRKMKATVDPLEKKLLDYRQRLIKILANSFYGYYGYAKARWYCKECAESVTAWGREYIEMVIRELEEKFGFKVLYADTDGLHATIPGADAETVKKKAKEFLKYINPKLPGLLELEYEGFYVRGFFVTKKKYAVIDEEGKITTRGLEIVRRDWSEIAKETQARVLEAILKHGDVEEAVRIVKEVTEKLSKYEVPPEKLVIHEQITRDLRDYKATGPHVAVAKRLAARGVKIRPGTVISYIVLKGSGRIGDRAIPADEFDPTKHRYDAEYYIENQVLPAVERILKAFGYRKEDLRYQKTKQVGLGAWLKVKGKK
# Taq DNA polymerase [6] = biological target: T2, Taq DNA polymerase; assay: PEP termination assay; type: biochemical, Thermus aquaticus YT-1
# [7] = biological target: T3, Therminator DNA polymerase; assay: PEP termination assay; type: biochemical, Thermococcus species 9ºN-7
# [8] = biological target: T4, Therminator II DNA polymerase (Thermococcus sp., UniProt Q56366, A485L/D141A/E143A/Y409V); assay: PEP termination assay; type: biochemical, Thermococcus species 9ºN-7
# T4 sequence (Q56366 1-775 D141A/E143A/Y409V/A485L): T3 sequence (Q56366 1-775 D141A/E143A/A485L) with Y409V
# Bst DNA polymerase [9] = biological target: T1, Bst DNA polymerase; assay: Oligonucleotide template assay; type: biochemical, Bacillus stearothermophilus; details: Bst; final concentration of 200 nM
# AmpliTaqFS = details: F667Y mutation in AmpliTaqFS; cited from earlier work
# [10] = Klenow(exo−), ratio of IC50 values
# [11] = AmpliTaqFS, ratio of IC50 values
# [12] = Therminator, ratio of IC50 values
# T2 sequence (P19821 whole entry): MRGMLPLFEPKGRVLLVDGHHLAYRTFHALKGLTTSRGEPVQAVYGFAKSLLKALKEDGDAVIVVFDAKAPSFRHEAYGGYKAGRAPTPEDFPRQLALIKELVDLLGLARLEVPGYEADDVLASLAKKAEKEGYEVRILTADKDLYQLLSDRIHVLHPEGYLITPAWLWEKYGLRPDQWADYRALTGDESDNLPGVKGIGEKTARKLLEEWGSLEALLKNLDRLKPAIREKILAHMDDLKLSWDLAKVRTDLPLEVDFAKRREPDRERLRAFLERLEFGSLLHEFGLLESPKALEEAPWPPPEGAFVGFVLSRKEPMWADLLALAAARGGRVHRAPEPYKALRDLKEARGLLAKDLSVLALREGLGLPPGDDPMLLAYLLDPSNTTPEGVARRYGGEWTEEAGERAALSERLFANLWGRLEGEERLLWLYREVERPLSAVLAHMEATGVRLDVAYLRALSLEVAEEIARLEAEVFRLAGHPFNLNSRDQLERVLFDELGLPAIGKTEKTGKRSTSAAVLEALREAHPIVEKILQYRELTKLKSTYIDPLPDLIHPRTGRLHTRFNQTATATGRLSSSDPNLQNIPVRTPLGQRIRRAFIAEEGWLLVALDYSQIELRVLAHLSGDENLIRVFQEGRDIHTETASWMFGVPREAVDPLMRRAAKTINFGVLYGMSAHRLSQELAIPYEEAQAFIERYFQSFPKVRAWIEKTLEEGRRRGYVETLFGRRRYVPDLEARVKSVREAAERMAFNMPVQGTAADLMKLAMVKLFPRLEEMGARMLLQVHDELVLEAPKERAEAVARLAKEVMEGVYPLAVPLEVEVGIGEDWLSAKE
# Sequence of AmpliTaqFS DNA polymerase (P19821 whole entry G46D/F667Y): as the sequence (P19821 whole entry) above, with G46D, F667Y counted along it
compound,measurement,setting,value
"O=[N+]([O-])c1ccccc1CNc1ncnc2c1ncn2[C@H]1C[C@H](O)[C@@H](COP(=O)(O)OP(=O)(O)OP(=O)(O)O)O1 [Compound IIIc, N^6-(2-Nitrobenzyl)-2’-deoxyadenosine-5’-triphosphate]",Incorporation bias Cpd IIIc/dATP,"Bst DNA polymerase [1]; Bst, ratio of IC50 values",18
same,Incorporation bias Cpd IIIc/ddATP,"Bst DNA polymerase [1]; Bst, ratio of IC50 values",0.057
same,Incorporation bias Cpd IIIc/dATP,[2]; [10],2.7
same,Incorporation bias Cpd IIIc/ddATP,[2]; [10],0.15
same,Incorporation bias Cpd IIIc/dATP,"Taq DNA polymerase [3]; Taq, ratio of IC50 values",380
same,Incorporation bias Cpd IIIc/ddATP,"Taq DNA polymerase [3]; Taq, ratio of IC50 values",0.17
same,Incorporation bias Cpd IIIc/dATP,[4]; [11],170
same,Incorporation bias Cpd IIIc/ddATP,[4]; [11],270
same,Incorporation bias Cpd IIIc/dATP,[5]; [12],1.3
same,Incorporation bias Cpd IIIc/ddATP,[5]; [12],0.32
same,IC50,Taq DNA polymerase [6],300 nM
same,% 1st Base,"Taq DNA polymerase [6]; Taq, 25× IC50, oligoTemplate-3",98.7 ± 0.4%
same,% 2nd Base,"Taq DNA polymerase [6]; Taq, 25× IC50, oligoTemplate-3",<0.1%
same,% Primer,"Taq DNA polymerase [6]; Taq, 25× IC50, oligoTemplate-3",1.3 ± 0.4%
same,IC50,[7],1.8 nM
same,IC50,[8],30 nM
same,Incorporation / termination of DNA synthesis,Bst DNA polymerase [9],"efficient, base-specific termination of DNA synthesis"
"Nc1ncnc2c1ncn2[C@H]1CC[C@@H](COP(=O)(O)OP(=O)(O)OP(=O)(O)O)O1 [ddATP, 2′,3′-dideoxyadenosine triphosphate, reference compound]",IC50,Bst DNA polymerase [1],370 ± 30 nM
same,Incorporation bias ddATP/dATP,"Bst DNA polymerase [1]; Bst, ratio of IC50 values",310
same,IC50,[2],29 ± 5 nM
same,Incorporation bias ddATP/dATP,[2]; [10],18
same,IC50,Taq DNA polymerase [3],12600 ± 900 nM
same,Incorporation bias ddATP/dATP,"Taq DNA polymerase [3]; Taq, ratio of IC50 values",2300
same,IC50,[4],3.3 ± 0.1 nM
same,Incorporation bias ddATP/dATP,[4]; [11],0.62
same,IC50,[5],9.7 ± 1.1 nM
same,Incorporation bias ddATP/dATP,[5]; [12],4.2
same,Ratio ddATP over dATP,AmpliTaqFS,0.59
